Ends that are not written are not given here.
Legend:
human SW-13 cells = test: growth assay with human SW-13 cells (FIG. 2, FIG. 4); format: cell-based; conditions: for inhibition of SW-13 cell growth: amounts added as high as 1,000 μg/ml
Source text: FIG. 2 illustrates the results of a growth assay conducted with both a peptide of the present invention (retro-peptide) and the antero-peptide sequence thereof.
FIG. 2 illustrates that both the antero-peptide and the retro-peptide are inhibitory in a growth assay with human SW-13 cells.
FIG. 4 illustrates the difference in effect on SW-13 cell growth between a 10-mer peptide sequence of the formula (SEQ ID NO:6): […]
As may be seen from FIG. 4, the 15-mer sequence has an inhibitive effect on SW-13 cell growth with increasing amount added in μg/ml. This effect becomes almost completely inhibiting in amounts added of about 100 μg/ml and greater.

[1] = tolerability in tumor-bearing mice; format: in vivo, athymic nude mice; conditions: 25 mg/kg daily i.p. for 8 days
Protocol: (§1) Human tumor cells (1 million per mouse) were inoculated in 0.1 ml of saline solution into a mammary fat pad of each mouse. Each group of treatment consisted of 10 animals. One day after the inoculation of tumor cells the animals were treated with a single daily intraperitoneal injection of saline solution (control group) or with the 15-mer retropeptide dissolved in saline solution at a dose of 25 mg per kg body weight (peptide group) or 25 mg per kg body weight of pentosanpolysulfate (pentosan polysulfate group). The treatment with peptide was continued for 8 days due to a currently still limited supply of the peptide. The pentosanpolysulfate treatment was continued throughout the whole observation period.
(§2) The mean ± standard error tumor size is 26.6±6.8 mm^2 (control group) and […] (peptide group). This difference is highly significant (p<0.003) as tested by student's t-test.

water solubility = format: physicochemical
Protocol: The present retro-peptide is water-soluble and is administered by any route, especially intravenously, subcutaneously, intraperitonially, intramuscularly, orally and rectally. The peptide may be conveniently administered in dextrose 5% saline or in saline solution.

human rhabdomyosarcoma [2] = test: growth inhibition of human rhabdomyosarcoma (in vitro); format: cell-based; conditions: same concentration as in the SW-13 assay
breast cancer cells = test: growth of cell lines growing independently from FGF; format: cell-based; conditions: such as breast cancer cells
Source text: (§3) FIG. 3 illustrates the competitive mechanism of FGF-dependent growth inhibition by the retro-peptide of the present invention. […] This clearly establishes the specificity of the FGF-receptor inhibition by the present retro-peptide.

human melanoma = test: growth inhibition of human melanoma; format: cell-based; conditions: same concentration as in the SW-13 assay
normal human cells = test: FGF-stimulated growth of normal human cells; format: cell-based
SW-13 cells = test: FGF-stimulated colony formation of SW-13 cells (FIG. 3); format: cell-based, human
Source text: FIG. 3 illustrates the competitive mechanism of FGF-dependent growth inhibition by a retro-peptide of the present invention.
as §3
In FIG. 3, "Co" refers to a control, while "A" refers to the antero-peptideand "R" refers to the retro-peptide.

human rhabdomyosarcoma [3] = test: human rhabdomyosarcoma xenograft in athymic nude mice (FIG. 6); format: in vivo
Protocol: Animal studies with human rhabdomyosarcoma growing in athymic nude mice were carried out with the 15 mer peptide. Tumors were allowed to grow subcutaneously and peptide (25 mg/kg of body weight) dissolved in saline was injected for eight days daily intraperitoneally. After three weeks the tumor size in a control group treated only with saline solution was 26.6±6.8 mm^2. The tumor size in the peptide-treated animals was 5.4±1.6 mm^2. […] This is illustrated in FIG. 6.
as §1, §2

NH2 --YRSRK--YSSWY-CO2 H [10-mer sequence, reference compound]
inhibition of SW-13 cell growth (human SW-13 cells; FIG. 4): essentially no such inhibition
inhibition of SW-13 cell growth (human SW-13 cells; FIG. 4, listed as 10-mer): loss of activity

NH2 --YRSRK--YSSWY-VALKR--CO2 H [15-mer sequence]
amount added at which inhibition of SW-13 cell growth becomes almost complete (human SW-13 cells; FIG. 4, about 100 μg/ml and greater): about 100 μg/ml

RKLAVYWSSYKRSRY [retro-peptide, NH2 --RKLAV--YWSSY--KRSRY--COOH]
body weight and signs of illness [1]: did not lose weight or show any other signs of major illness
tolerability [1]: tolerated the peptide well
solubility in water (water solubility): water-soluble
effectiveness against human rhabdomyosarcoma (human rhabdomyosarcoma [2]): effective at the same concentration
inhibition of cell lines growing independently from FGF (breast cancer cells): neither of the antero-peptide nor retro-peptide inhibit
effectiveness against human melanoma (human melanoma): effective at the same concentration
FGF-stimulated growth of normal human cells (normal human cells): blocks FGF-stimulated growth
inhibition in growth assay with human SW-13 cells (human SW-13 cells; FIG. 2): inhibitory
potency in SW-13 growth assay relative to the antero-peptide (human SW-13 cells; FIG. 2, retro-peptide versus antero-peptide): much more potent
dose-response curve of FGF-stimulated colony formation of SW-13 cells (SW-13 cells; competitive mechanism): shifted to the right without affecting the maximum achieved
mean ± standard error tumor size (human rhabdomyosarcoma [3]; after 24 days of observation, 25 mg/kg daily i.p. for 8 days, saline control 26.6±6.8, p<0.003): 5.0±1.6 mm^2
tumor size (human rhabdomyosarcoma [3]; after three weeks, 25 mg/kg daily i.p. for eight days, saline control 26.6±6.8, p<0.003): 5.4±1.6 mm^2

YRSRKYSSWYVALKR [antero-peptide, NH2 --YRSRK--YSSWY--VALKR--COOH, reference compound]
inhibition of cell lines growing independently from FGF (breast cancer cells): neither of the antero-peptide nor retro-peptide inhibit
inhibition in growth assay with human SW-13 cells (human SW-13 cells; FIG. 2): inhibitory
potency in FGF-stimulated SW-13 colony formation relative to the retro-peptide (SW-13 cells; antero-peptide versus retro-peptide): significantly less potent

pentosanpolysulfate [reference compound]
action on tumor size (human rhabdomyosarcoma [3]; 25 mg/kg daily i.p. throughout the observation period, p<0.05): significant

Source: patent US5789382A, “Retro-peptide fibroblast growth factor which blocks FGF receptor” (Georgetown University, priority 1993, dated 1998)
